According to publication PMC10344917, “Affinity and cooperativity modulate ternary complex formation to drive targeted protein degradation” (Nature Communications, 2023):

Assays:
VHL/EloB/EloC (VBC) = target: T1, VHL/EloB/EloC (VBC) (Homo sapiens, UniProt P40337); experiment: SPR binary binding of PROTAC to VBC-functionalized surface; settings: SPR; error SEM, N = 3; read-out: KLP (binary binding affinity between E3 ligase VHL and PROTAC)
T1 construct: VHL (54-213), ElonginB (17-112) ElonginC (1-104); made in house

SMARCA2 [1] = target: T2, SMARCA2 (Homo sapiens, UniProt P51531); experiment: SMARCA2 degradation time course in A375 cells (MSD); format: cell-based; settings: single concentration at or near maximal activity
T2 construct: endogenous in cells; host or cells: A375
Excerpt: This characteristic has been described as cooperativity (α > 1) and likely results from favorable PPIs present in the ternary complex. […] To measure the rate of protein degradation, we treated A375 cells with a single concentration of each PROTAC and measured the decrease in target abundance over time as shown in Figs. 4b and5b.
(§1) MSD electrochemiluminescence signals were subtracted by the average background signal from wells with lysis buffer alone. Normalized MSD values (POC) for individual compound treated wells were acquired by dividing background-subtracted assay signal by signal from vehicle control wells (cells + 0.1% DMSO) and multiplying by 100. This POC data was graphed using a nonlinear regression curve fit xy analysis and a log(inhibitor) vs response —variable slope (four parameter) model for dose response curves (Graphpad Prism 9, San Diego, CA, USA). To calculate area under the curve, all points on the curve were connected and vertical lines were drawn from each point down to y = 0, generating a series of trapezoids. The area of each trapezoid was determined using the equation A = (1/2)(h)(b1 + b2), where h = 1 (distance between points), b1 = POC of the first point and b2 = POC of the second point. The sum of all trapezoids provides an approximate area under the curve (AUC). For half-life (t1/2) determination in time course studies, a one-phase decay model was used for curve fitting and the time at which the curve crossed 50 POC was determined through interpolation (Graphpad Prism 9, San Diego, CA, USA). Additionally initial rate of degradation was determined by multiplying 100 with rate constant (τ = 0.693/t1/2).

[2] = target: T3, VBC / SMARCA2^BD ternary complex (Homo sapiens, UniProt P40337+P51531); experiment: SPR ternary complex binding, VBC surface with preformed PROTAC/SMARCA2 bromodomain complex; settings: for Kd: SPR, VHL, PROTAC, error SEM, N = 3, read-out: KLPT (ternary complex binding affinity)
T3 construct: VHL (54-213), ElonginB (17-112) ElonginC (1-104); SMARCA2^BD 1373–1511 ∆1400–1417; His6 (N, cleaved yes); made in house
Protocol: SPR experiments were performed on a Biacore 8 K or T200 instrument (Cytiva). […] The running buffer during immobilization was PBS with 0.005% P20. Either high-density (3000-4000 RU) or low-density (300-400 RU) VBC-functionalized surfaces were created, followed by equilibration in the running buffer for 3 h.
PROTACs (10 mM in 100% DMSO) were initially prepared at 200 nM in a running buffer (20 mM Tris pH 8.0, 250 mM NaCl, 1 mM TCEP, 0.01% P20, 0.2 mg/ml BSA) with a concentration of 2% DMSO. This solution was mixed at 1:1 ratio with a solution of 5 μM of the SMARCA2 or BRD4 bromodomain protein in the running buffer. This complex was then serially diluted in the running buffer containing 2.5 μM SMARCA2 or BRD4 and 2% DMSO (5-point five-fold serial dilution). For ternary experiments, solutions were injected sequentially in single-cycle kinetic format without regeneration (contact time 60 s, flow rate 80 μL/min, dissociation time 300 s) using a stabilization period of 60 s and syringe wash (50% DMSO) between injections onto a low-density VBC-functionalized surface.
Raw sensorgrams were processed by performing double reference subtraction, solvent correction, and analysis was done using Biacore Insight Evaluation Software. Kinetic analysis was performed by fitting data to a 1:1 Langmuir interaction model and a steady-state affinity model was used to evaluate equilibrium binding affinity.

SMARCA2 [3] = target: T2, SMARCA2; experiment: SMARCA2 degradation, MSD assay, dose response; format: cell-based; set-up: key to AUC (area under the dose-response curve): sum of trapezoids of POC vs dose points, h = 1; settings: for Dmax: A-375, SMARCA2 degraded; for Dmax / DC50: MSD assay, 2 h timepoint; for Dmax / AUC (area under the dose-response curve) / DC50: A375 cells; for AUC (area under the dose-response curve): SMARCA2 MSD assay, 2 h; for DC50: SMARCA2 degradation
Protocol: A375 cells were treated with SMARCA2 or BRD4 degraders for 2 h (4 h for BRD4) and generated lysates. SMARCA2 or BRD4 protein was measured with a variation of a sandwich ELISA that was assembled from commercially available antibodies as well as reagents and instrumentation procured from Meso Scale Discovery (MSD). Degradation parameter, DC50, is not suitable for PROTACs that induce partial/incomplete DR curves at a fixed time point; maximum drop in target protein level (Dmax) >>0. Conversely, the area under the curve (AUC) can be calculated as a degradation activity parameter for any DR curve, and it encompasses both the degradation potency (i.e., DC50) and efficacy (i.e., Dmax) of PROTACs.
A 1:3 compound dose-response titration was diluted in growth media (1:20), added to appropriate wells of a cell culture plate (1:10) and then assay plates were incubated at 37 °C, 5% CO2.
Plates were washed with 300 µL per well MSD wash buffer (MSD R61TX-1) between each step. Following the last incubation, plates were washed with MSD wash buffer then 150 µL of MSD read buffer (MSD R92TC-2) was added to each well. Plates were immediately read on a MSD plate reader (MSD Sector Imager 6000).
as §1, with “USA).” for “USA). Additionally initial rate of degradation was determined by multiplying 100 with rate constant (τ = 0.693/t1/2).”

T2 sequence (P51531 whole entry): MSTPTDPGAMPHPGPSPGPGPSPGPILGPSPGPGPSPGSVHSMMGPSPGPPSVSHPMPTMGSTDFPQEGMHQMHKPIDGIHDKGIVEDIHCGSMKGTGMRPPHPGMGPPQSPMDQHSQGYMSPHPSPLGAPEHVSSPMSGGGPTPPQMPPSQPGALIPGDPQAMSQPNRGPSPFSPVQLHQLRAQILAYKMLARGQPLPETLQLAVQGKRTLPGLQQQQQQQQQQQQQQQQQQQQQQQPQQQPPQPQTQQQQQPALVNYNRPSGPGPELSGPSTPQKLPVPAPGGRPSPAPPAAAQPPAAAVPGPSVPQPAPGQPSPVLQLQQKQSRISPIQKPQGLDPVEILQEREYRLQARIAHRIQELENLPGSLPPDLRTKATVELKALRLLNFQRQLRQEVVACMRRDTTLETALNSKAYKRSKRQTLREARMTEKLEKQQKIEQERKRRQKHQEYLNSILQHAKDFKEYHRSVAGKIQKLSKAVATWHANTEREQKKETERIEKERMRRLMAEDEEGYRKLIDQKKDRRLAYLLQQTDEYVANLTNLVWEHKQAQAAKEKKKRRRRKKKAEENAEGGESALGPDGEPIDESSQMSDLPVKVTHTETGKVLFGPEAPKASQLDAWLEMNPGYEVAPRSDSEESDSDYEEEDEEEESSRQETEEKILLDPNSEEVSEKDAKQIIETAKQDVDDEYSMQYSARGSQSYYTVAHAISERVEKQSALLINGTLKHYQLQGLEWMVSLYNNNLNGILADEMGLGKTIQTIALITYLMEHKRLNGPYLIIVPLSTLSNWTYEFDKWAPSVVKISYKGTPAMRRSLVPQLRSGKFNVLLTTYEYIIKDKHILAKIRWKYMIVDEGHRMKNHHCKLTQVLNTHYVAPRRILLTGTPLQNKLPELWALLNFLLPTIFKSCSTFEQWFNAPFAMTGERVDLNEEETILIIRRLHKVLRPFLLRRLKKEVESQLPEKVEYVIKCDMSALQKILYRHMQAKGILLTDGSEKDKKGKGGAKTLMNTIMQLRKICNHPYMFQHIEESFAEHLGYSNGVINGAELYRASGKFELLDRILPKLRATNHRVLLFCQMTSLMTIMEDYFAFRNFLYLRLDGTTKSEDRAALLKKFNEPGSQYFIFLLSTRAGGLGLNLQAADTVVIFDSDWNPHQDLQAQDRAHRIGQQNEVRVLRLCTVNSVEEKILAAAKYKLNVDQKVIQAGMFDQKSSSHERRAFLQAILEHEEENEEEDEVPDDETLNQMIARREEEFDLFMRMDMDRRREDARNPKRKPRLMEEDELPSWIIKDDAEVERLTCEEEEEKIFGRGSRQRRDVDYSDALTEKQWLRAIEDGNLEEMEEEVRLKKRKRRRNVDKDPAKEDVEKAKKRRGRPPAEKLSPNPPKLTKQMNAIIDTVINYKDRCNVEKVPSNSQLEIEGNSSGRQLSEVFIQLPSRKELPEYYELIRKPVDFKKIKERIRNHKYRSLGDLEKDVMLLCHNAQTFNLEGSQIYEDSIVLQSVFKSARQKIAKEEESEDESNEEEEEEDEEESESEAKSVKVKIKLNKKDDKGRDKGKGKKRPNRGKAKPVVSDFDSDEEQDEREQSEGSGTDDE
T3 sequence (P40337 54-213): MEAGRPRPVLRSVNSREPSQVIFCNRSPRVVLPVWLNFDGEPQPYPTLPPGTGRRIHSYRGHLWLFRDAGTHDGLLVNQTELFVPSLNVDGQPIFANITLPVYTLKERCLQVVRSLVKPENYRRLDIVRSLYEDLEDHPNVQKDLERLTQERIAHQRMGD
T3 sequence (P51531 other isoform, or with tags, fused parts or gaps): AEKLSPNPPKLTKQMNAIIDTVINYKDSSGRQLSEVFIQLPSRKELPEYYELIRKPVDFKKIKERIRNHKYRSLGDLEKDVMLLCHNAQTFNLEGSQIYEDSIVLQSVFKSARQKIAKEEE
T3 sequence (Q15370 1-104, further chain): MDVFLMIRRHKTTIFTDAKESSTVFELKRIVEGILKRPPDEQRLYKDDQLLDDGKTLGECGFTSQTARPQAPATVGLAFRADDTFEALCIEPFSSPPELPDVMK
T3 sequence (Q15369 17-112, further chain): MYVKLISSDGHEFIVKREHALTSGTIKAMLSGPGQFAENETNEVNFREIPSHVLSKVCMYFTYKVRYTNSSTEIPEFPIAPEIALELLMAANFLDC
T1 sequence (Q15369 17-112): as the sequence (Q15369 17-112, further chain) above
T1 sequence (Q15370 1-104, further chain): as the sequence (Q15370 1-104, further chain) above
T1 sequence (P40337 54-213): as the sequence (P40337 54-213) above

Kd (VHL/EloB/EloC (VBC)) [nM] | Initial Degradation Rate (SMARCA2 [1]) [%/min] | α (cooperativity, KLP/KLPT) [2] | Kd [2] [nM] | Dmax (SMARCA2 [3]) [%] | AUC (area under the dose-response curve) (SMARCA2 [3]) | DC50 (SMARCA2 [3]) [nM] | SMARCA2 degradation (SMARCA2 [3]; 2 h MSD assay) | SMILES
7 ± 2 | 1.34 | 0.26 | 27 ± 3 | 80 | 75 | 379 |  | Cc1ncsc1-c1ccc([C@H](C)NC(=O)[C@@H]2C[C@@H](O)CN2C(=O)[C@@H](NC(=O)CCc2ccnc(N3CCN(c4cc(-c5ccccc5O)nnc4N)CC3)c2)C(C)(C)C)cc1 [Compound 8, (2S,4R)-1-((S)-2-(3-(2-(4-(3-Amino-6-(2-hydroxyphenyl)pyridazin-4-yl)piperazin-1-yl)pyridin-4-yl)propanamido)-3,3-dimethylbutanoyl)-4-hydroxy-N-((S)-1-(4-(4-methylthiazol-5-yl)phenyl)ethyl)pyrrolidine-2-carboxamide]
60 ± 5 | 0.56 | 0.24 | 250 ± 30 | 65 | 100 | 469 | ~ 30% | Cc1ncsc1-c1ccc([C@H](C)NC(=O)[C@@H]2C[C@@H](O)CN2C(=O)[C@@H](NC(=O)c2ccnc(N3CCN(c4cnnc(-c5ccccc5O)c4)CC3)c2)C(C)(C)C)cc1 [Compound 10, N-((S)-1-((2S,4R)-4-Hydroxy-2-(((S)-1-(4-(4-methylthiazol-5-yl)phenyl)ethyl)carbamoyl)pyrrolidin-1-yl)-3,3-dimethyl-1-oxobutan-2-yl)-2-(4-(6-(2-hydroxyphenyl)pyridazin-4-yl)piperazin-1-yl)isonicotinamide]
